Source: patent US5120859A, “Chimeric amino acid analogues” (dated 1992)
Starred links: 1 amine or outer side, 2 acyl side, 3 side chain; linkers in the order of their positions; H or OH if unused. Non-standard residues stand in square brackets, D forms with d. Residues, ends and D or L forms follow the SMILES beside them. Pro(trans-4-guanidino) = N=C(N)N[C@H]1CN[C@H](C(=O)O)C1; Pro(cis-4-guanidino) = NC(N)=N[C@@H]1CN[C@H](C(=O)O)C1; X4 = N=C(N)NC[C@@H]1C[C@@H](C(=O)[*:2])N([*:1])C1; X1 = N=C(N)NC[C@@H]1C[C@H](C(=O)[*:2])N([*:1])C1; X2 = N=C(N)NC[C@H]1C[C@@H](C(=O)[*:2])N([*:1])C1; X5 = N=C(N)NC[C@H]1C[C@H](C(=O)[*:2])N([*:1])C1; X3 = N=C(N)N[C@H]1C[C@H](C(=O)[*:2])N([*:1])C1

Molecular target: IIbIIIa receptor (Homo sapiens, UniProt P05106+P08514)
Sequence (P08514 32-1039): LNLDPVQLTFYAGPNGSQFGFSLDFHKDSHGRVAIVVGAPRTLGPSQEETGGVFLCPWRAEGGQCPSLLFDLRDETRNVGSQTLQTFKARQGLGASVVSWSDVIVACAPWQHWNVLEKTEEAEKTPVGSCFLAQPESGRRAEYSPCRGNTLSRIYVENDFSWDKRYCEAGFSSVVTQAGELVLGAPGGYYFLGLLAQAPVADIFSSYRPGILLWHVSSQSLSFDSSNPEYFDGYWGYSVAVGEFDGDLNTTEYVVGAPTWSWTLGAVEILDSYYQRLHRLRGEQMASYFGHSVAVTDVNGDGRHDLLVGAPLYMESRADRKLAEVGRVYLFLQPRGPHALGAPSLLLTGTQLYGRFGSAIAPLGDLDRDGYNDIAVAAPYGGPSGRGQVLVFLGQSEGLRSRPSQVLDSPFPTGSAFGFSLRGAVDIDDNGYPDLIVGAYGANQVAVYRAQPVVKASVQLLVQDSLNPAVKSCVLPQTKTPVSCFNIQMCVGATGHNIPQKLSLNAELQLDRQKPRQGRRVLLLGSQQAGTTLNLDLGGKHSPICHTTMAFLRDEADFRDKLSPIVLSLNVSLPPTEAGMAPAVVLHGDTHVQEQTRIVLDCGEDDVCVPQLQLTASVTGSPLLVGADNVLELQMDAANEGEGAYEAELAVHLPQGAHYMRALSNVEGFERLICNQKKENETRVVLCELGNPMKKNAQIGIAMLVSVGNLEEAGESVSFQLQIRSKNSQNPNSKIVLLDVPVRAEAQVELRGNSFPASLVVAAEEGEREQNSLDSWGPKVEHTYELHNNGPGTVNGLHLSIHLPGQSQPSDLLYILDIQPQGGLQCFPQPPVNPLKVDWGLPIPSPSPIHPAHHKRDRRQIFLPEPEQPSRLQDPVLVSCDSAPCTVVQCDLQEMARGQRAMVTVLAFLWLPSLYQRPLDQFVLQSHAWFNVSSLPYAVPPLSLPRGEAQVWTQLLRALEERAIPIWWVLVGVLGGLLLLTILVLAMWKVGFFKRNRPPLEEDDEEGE
Sequence (P05106 27-788): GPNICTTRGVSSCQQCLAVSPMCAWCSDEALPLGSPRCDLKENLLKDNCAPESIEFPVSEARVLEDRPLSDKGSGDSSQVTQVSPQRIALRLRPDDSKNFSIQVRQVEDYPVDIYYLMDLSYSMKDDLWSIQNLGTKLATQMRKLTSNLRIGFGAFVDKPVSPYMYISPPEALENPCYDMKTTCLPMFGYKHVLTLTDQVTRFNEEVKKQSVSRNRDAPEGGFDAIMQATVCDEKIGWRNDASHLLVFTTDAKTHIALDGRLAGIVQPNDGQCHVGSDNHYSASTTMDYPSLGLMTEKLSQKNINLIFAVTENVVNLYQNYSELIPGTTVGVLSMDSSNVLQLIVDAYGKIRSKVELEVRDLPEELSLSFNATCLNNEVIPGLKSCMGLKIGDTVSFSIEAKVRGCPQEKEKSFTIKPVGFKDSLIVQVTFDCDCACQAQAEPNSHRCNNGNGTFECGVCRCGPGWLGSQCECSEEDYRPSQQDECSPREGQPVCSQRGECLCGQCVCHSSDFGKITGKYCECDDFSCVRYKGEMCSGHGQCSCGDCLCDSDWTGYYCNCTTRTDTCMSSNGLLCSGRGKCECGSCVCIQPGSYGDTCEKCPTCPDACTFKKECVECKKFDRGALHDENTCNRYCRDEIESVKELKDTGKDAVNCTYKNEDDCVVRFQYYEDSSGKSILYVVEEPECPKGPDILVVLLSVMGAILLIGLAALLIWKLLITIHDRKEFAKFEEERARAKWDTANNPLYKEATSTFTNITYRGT
Test: biochemical
Conditions: read-out: IC50 (Ratio to GRGDV IC50)
Method: Microtier plates are coated with fibrinogen (10 ug/ml) and then blocked with TACTS buffer containing 0.5% BSA. (TACTS buffer contains 20 mM Tris.HCl, pH 7.5, 0.02% sodium azide, 2 mM calcium chloride, 0.05% Tween 20, 150 mM sodium chloride.) The plate is washed with phosphate buffered saline containing 0.01% Tween 20 and a dilution of the sample to be determined added, followed by addition of solubilized IIbIIIa receptor (40 ug/ml) in TACTS, 0.5% BSA. After incubation, the plate is washed and murine monoclonal anti-platelet antibody AP3 (1 ug/ml) added. After another wash, […] IgG conjugated to horseradish peroxidase are added. A final wash is performed and developing reagent buffer (10 mg o-phenylenediamine dihydrochloride, 0.0212% hydrogen peroxide, 0.22 mM citrate, 50 mM phosphate, pH 5.0) is added and then incubated until color developed. The reaction is stopped with 1N sulfuric acid and the absorbance at 492 nm is recorded. […] The ratio represents the ratio of the IC50 of the test compound to the IC50 of the internal standard (GRGDV).

Compound	IC50
CC(C)[C@H](NC(=O)[C@H](CC(=O)O)NC(=O)CNC(=O)[C@H]1C[C@H](NC(=N)N)CN1C(=O)CN)C(=O)O [##STR54##] (H-G[X3]GDV-OH)	226 nM
CC(C)[C@H](NC(=O)[C@H](CC(=O)O)NC(=O)CNC(=O)[C@@H]1C[C@H](NC(=N)N)CN1C(=O)CN)C(=O)O [##STR55##] (H-G[Pro(cis-4-guanidino)]GDV-OH)	565 nM
CC(C)[C@H](NC(=O)[C@H](CC(=O)O)NC(=O)CNC(=O)[C@H]1C[C@H](CNC(=N)N)CN1C(=O)CN)C(=O)O [##STR56##] (H-G[X5]GDV-OH)	37 nM
CC(C)[C@H](NC(=O)[C@H](CC(=O)O)NC(=O)CNC(=O)[C@@H]1C[C@H](CNC(=N)N)CN1C(=O)CN)C(=O)O [##STR58##] (H-G[X2]GDV-OH)	101 nM
CC(C)[C@H](NC(=O)[C@H](CC(=O)O)NC(=O)CNC(=O)[C@@H]1C[C@H](NC(=N)N)CN1)C(=O)O [##STR59##] (H-[Pro(cis-4-guanidino)]GDV-OH)	155 nM
CC(C)[C@H](NC(=O)[C@H](CC(=O)O)NC(=O)CNC(=O)[C@@H]1C[C@@H](NC(=N)N)CN1C(=O)CN)C(=O)O [##STR60##] (H-G[Pro(trans-4-guanidino)]GDV-OH)	1700 nM

Stronger by IC50, values ahead:

IC50	Compound
6.4 nM	CC(C)[C@H](NC(=O)[C@H](CC(=O)O)NC(=O)CNC(=O)[C@H]1C[C@H](CNC(=N)N)CN1)C(=O)O [##STR51##]
10 nM	CC(C)[C@H](NC(=O)[C@H](CC(=O)O)NC(=O)CNC(=O)[C@@H]1C[C@H](CNC(=N)N)CN1)C(=O)O [##STR52##]
30 nM	CC(C)[C@H](NC(=O)[C@H](CC(=O)O)NC(=O)CNC(=O)[C@@H]1C[C@@H](CNC(=N)N)CN1C(=O)CN)C(=O)O [##STR53##] (H-G[X4]GDV-OH)
25 nM	CC(C)[C@H](NC(=O)[C@H](CC(=O)O)NC(=O)CNC(=O)[C@H]1C[C@@H](CNC(=N)N)CN1C(=O)CN)C(=O)O [##STR57##] (H-G[X1]GDV-OH)
